The subject of series [1] is IL-12 production by LPS-activated monocytes. The series is described as follows: Stimulation of human monocytes with lipopolysaccharide for secretion of IL-12 (IL-12 sandwich ELISA of culture supernatants). In kind it is cell-based. To be noted: CD14-positive human monocytes, 1 h preincubation with test substance, 20 μg/ml LPS from E. coli, 24 hours; for IC50: Monocyte, read-out: Inhibition of IL-12 production IC50. On the procedure: Human monocytes were isolated from peripheral blood mononuclear cells (PBMC) obtained by means of a Ficoll density-gradient centrifugation of heparinized whole blood. To this end, the PBMC were incubated with a monoclonal antibody directed against the monocyte-specific surface molecule CD14 and to which superparamagnetic microbeads (Miltenyi Biotech, Bergisch Gladbach) are coupled. In order for the marked monocytes to be positively selected from the mixture of cells in the PBMC, the total cell suspension was transferred to a column with a ferromagnetic carrier matrix and the column placed in a magnetic field. This caused the cells loaded with microbeads to be bonded to the carrier matrix, whilst unmarked cells passed through the column and were discarded. After removing the matrix from the magnetic field, the antibody-loaded cells were eluted by rinsing the now demagnetised column with buffer. The purity of this CD 14-positive monocyte population thus obtained was around 95 to 98%. These monocytes were incubated in a density of 10^6 cells/ml culture medium (RPMI, supplemented with 10% fetal calf serum) with the test substances dissolved in DMSO for one hour at 37° C. and 5% CO2.20 μg/ml LPS from E. coli were then added. After 24 hours, cell-free culture supernatants were taken and tested for their IL-12 content.
The concentration of IL-12 in the cell culture supernatants was determined by means of sandwich ELISA using two anti-IL-12 monoclonal antibodies (Biosource Europe, Fleurus, Belgium). A reference standard curve with human IL-12 was included. The detection limit of the IL-12 ELISA was 10 pg/ml.

Results on 26 compounds are retold here after patent US6656937B2, “Substituted glutarimides and their use as inhibitors of IL-12 production” (Gruenenthal, GmbH, priority 2000, dated 2003).

Values after ≈ are worked out from the molar mass of the structure shown. Structures can show the parent of a compound that is named as a salt.

As usually defined, the IC50 is the point on the concentration scale where inhibition reaches its midpoint. In the case of `O=CNc1ccccc1CNC1CCC(=O)NC1=O` (stereo not drawn) [Example 17, N-{2-[(2,6-dioxopiperidin-3-ylamino)methyl]phenyl}Formamide], in series [1], the “Inhibition of IL-12 production Maximum (%)” value (“Inhibition … (%)” for short) was found to be 98% and the IC50 was found to be 0.02 µg/mL (≈ 0.0765 µM).

For `O=C1CC[C@@H](NCc2ccccc2C(=O)Nc2ccccc2)C(=O)N1` [Example 8.10, 2-[(3R)-(2,6-dioxopiperidin-3-ylamino)methyl]-N-phenyl benzamide], the “Inhibition … (%)” value in series [1] turned out to be 50%. As for `CC(=O)Nc1ccccc1CNC1CCC(=O)NC1=O` (stereo not drawn) [Example 16], in series [1], the “Inhibition of IL-12 production IC50” value was 3.0 µg/mL and the “Inhibition … (%)” value was 95%. On to `O=C1CC[C@@H](NCc2ccccc2C(=O)O)C(=O)N1` [Example 6.2, 2-[(3R)-(2,6-dioxopiperidin-3-ylamino)methyl]benzoic acid], for which, in series [1], the “Inhibition … (%)” value came to 75% and the IC50 stood at 1 µg/mL (≈ 3.81 µM). On to `COC(=O)c1ccccc1CN[C@H]1CCC(=O)NC1=O` [Example 9.1, 2-[(3S)-(2,6-dioxopiperidin-3-ylamino)methyl]methyl benzoate], for which, in series [1], the “Inhibition of IL-12 production IC50” value amounted to 0.1 µg/mL and the “Inhibition … (%)” value came out at 90%. For “{2-[(3S)-(2,6-dioxopiperidin-3-ylamino)methyl]benzoylamino}methyl acetate [Example 8.2]”, in series [1], the “Inhibition of IL-12 production IC50” value worked out at 1.8 µg/mL and the “Inhibition … (%)” value was 70%. The matching figures for `O=C1CC[C@H](NCc2ccccc2C(=O)N2CCCC2)C(=O)N1` [Example 8.5]: 2.0 µg/mL and 80%. The matching figures for `O=C1CC[C@H](NCc2ccccc2C(=O)N2CCOCC2)C(=O)N1` [Example 8.1]: 1.8 µg/mL and 90%.

Take `O=C1CC[C@H](NCc2ccccc2C(=O)Nc2ccccc2)C(=O)N1` [Example 8.7, 2-[(3S)-(2,6-dioxopiperidin-3-ylamino)methyl]-N-phenylbenzamide]: in series [1], the “Inhibition … (%)” value amounted to 55% and the IC50 is 0.7 µg/mL (≈ 2.07 µM). “2-[(3S)-(2,6-dioxopiperidin-3-ylamino)methyl]benzyl benzoate [Example 9.2]”: in series [1], the “Inhibition of IL-12 production IC50” value is 1.5 µg/mL and the “Inhibition … (%)” value stood at 82%.

As for `COC(=O)c1cc(SCC2CCC(=O)NC2=O)ccc1[N+](=O)[O-]` (stereo not drawn) [Example 18, 3-(2,6-dioxopiperidin-3-ylmethylsulfanyl)-6-nitro Methylbenzoate], in series [1], the “Inhibition of IL-12 production IC50” value was determined as 3.0 µg/mL and the “Inhibition … (%)” value was 57%. The like results for `COC(=O)c1cc(SCC2CCC(=O)NC2=O)ccc1N` (stereo not drawn) [Example 19, 2-amino-5-(2,6-dioxopiperidin-3-ylmethylsulfanyl) methyl benzoate] were, in that order, 5.0 µg/mL and 66%. On to `NNC(=O)c1ccccc1CN[C@H]1CCC(=O)NC1=O` [Example 8.6, 2-[(3S)-(2,6-dioxopiperidin-3-ylamino)methyl]benzoic acid hydrazide], for which, in series [1], the “Inhibition … (%)” value is 90% and the IC50 was found to be 0.04 µg/mL (≈ 0.145 µM). With `NC(=O)c1ccccc1CN[C@H]1CCC(=O)NC1=O` [Example 8.3, 2-[(3S)-(2,6-dioxopiperidin-3-ylamino)methyl]benzamide], in series [1], the “Inhibition … (%)” value was 90% and the 50% inhibitory concentration (IC50) amounted to 0.15 µg/mL (≈ 0.574 µM).

As usually defined, the melting point is the temperature, or range, at which the solid turns liquid. For the compound `O=C1CCC(NCc2ccc(F)cc2Cl)C(=O)N1` (racemic) (as salt: hydrochloride) [Example 2.13, 3-(2-chloro-4-fluorobenzylamino) piperidine-2,6-dione], the melting point lay in the range of 241 to 242 °C. The same measure, in the same setting: then `O=C1CCC(NCc2cc(F)cc(C(F)(F)F)c2)C(=O)N1` (racemic) (as salt: hydrochloride) [Example 2.18, 3-[3-fluoro-5-(trifluoromethyl)benzylamino]piperidine-2,6-dione], with 241 to 243 °C. Consider `O=C1CCC(NCc2cccc3ccccc23)C(=O)N1` (racemic) (as salt: hydrochloride) [Example 2.6, 3-[(naphth-1-ylmethyl)amino]piperidine-2,6-dione], for which the melting point is 188 °C (dec.).

For the compound `O=C1CCC(NCc2cc(F)cc(F)c2)C(=O)N1` (racemic) (as salt: hydrochloride) [Example 2.5, 3-(3,5-difluorobenzylamino) piperidine-2,6-dione], the melting point was 230 to 236 °C (dec.). Consider `CCNC(=O)c1ccccc1CN[C@H]1CCC(=O)NC1=O` [Example 8.4, 2-[(3S)-(2,6-dioxopiperidin-3-ylamino)methyl]-N-ethyl benzamide], for which, in series [1], the “Inhibition of IL-12 production IC50” value is 0.9 µg/mL and the “Inhibition … (%)” value is on record as 80%. Consider `CCN(CC)C(=O)c1ccccc1CN[C@H]1CCC(=O)NC1=O` [Example 7, 2-[(3S)-(2,6-dioxopiperidin-3-ylamino)methyl]-N,N-diethylbenzamide], for which, in series [1], the “Inhibition … (%)” value amounted to 90% and the IC50 was 1.5 µg/mL (≈ 4.73 µM). `NNC(=O)c1ccccc1CN[C@H]1CCC(=O)NC1=O` (as salt: hydrobromid) [Example 8.6, 2-[(3S)-(2,6-dioxopiperidin-3-ylamino)methyl]benzoic acid hydrazide] displayed a melting point of 241 to 242 °C. For `COC(=O)c1ccccc1SCC1CCC(=O)NC1=O` (stereo not drawn) [Example 13.3, 2-(2,6-dioxopiperidin-3-ylmethyl)sulfanyl) methyl benzoate], in series [1], the “Inhibition of IL-12 production IC50” value is 6.0 µg/mL and the “Inhibition … (%)” value worked out at 50%. `NC(=O)c1ccccc1CN[C@@H]1CCC(=O)NC1=O` [Example 8.12, 2-[(3R)-(2,6-dioxopiperidin-3-ylamino)methyl]benzamide]: in series [1], the “Inhibition … (%)” value is recorded as 84% and the IC50 was found to be 1 µg/mL (≈ 3.83 µM). For `O=C1CC[C@H](NCc2ccccc2C(=O)O)C(=O)N1` [Example 6.1, 2-[(3S)-(2,6-dioxopiperidin-3-ylamino)methyl]benzoic acid], in series [1], the “Inhibition … (%)” value amounted to 85% and the 50% inhibitory concentration (IC50) was determined as 1 µg/mL (≈ 3.81 µM).

As for `CCN(CC)C(=O)c1ccccc1CN[C@@H]1CCC(=O)NC1=O` [Example 8.11, 2-[(3R)-(2,6-dioxopiperidin-3-ylamino)methyl]-N,N-diethyl benzamide], in series [1], the “Inhibition of IL-12 production IC50” value was found to be 0.2 µg/mL and the “Inhibition … (%)” value came out at 90%. For `O=C1CCC(CSCCc2ccccc2)C(=O)N1` (stereo not drawn) [Example 13.2, 3-phenethylsulfanylmethyl piperidine-2,6-dione], the melting point amounted to 78 °C.
